What all share (assay type): cell-based
In one data set the target is T1, AR protein (Homo sapiens, UniProt P10275).
T1 construct: VCap is a human prostate cancer cell line purchased from ATCC; host or cells: VCaP human prostate cancer cells
T1 sequence (P10275 1-920): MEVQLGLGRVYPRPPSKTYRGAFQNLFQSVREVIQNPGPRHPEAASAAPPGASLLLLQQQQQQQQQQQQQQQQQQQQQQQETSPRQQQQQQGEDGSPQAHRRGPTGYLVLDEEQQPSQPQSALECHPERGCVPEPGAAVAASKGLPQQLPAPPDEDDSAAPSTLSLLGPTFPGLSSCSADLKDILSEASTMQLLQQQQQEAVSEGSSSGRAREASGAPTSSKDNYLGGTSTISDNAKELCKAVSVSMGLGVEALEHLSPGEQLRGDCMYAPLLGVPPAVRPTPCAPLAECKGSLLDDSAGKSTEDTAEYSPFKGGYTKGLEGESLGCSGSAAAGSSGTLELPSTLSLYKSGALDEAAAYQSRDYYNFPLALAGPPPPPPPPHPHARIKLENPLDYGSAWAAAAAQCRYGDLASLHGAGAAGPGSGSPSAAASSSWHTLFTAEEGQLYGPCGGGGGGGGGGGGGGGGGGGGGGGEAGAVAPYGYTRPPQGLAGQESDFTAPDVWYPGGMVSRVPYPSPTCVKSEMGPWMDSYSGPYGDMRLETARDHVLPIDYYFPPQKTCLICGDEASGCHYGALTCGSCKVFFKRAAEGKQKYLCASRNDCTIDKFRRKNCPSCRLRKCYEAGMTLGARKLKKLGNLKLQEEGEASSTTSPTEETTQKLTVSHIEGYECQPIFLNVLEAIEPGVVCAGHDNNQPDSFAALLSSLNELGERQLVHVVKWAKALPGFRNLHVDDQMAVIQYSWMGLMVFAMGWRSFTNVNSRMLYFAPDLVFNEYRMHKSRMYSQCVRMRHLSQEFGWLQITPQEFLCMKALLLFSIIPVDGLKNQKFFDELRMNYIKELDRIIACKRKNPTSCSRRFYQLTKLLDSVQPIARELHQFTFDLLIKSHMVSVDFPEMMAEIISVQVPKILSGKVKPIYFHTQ
Nature of the data set: Detection of AR degradation in VCaP cells (automated western blot). The note with it: degradation of AR protein in VCaP cells, 24 hours incubation; read-out: DC50. Summed up: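 VCaP cells (5 × 10^5/well) were treated with compounds at various concentrations for 24 h at 37°C. Lysate AR level was quantified by automated capillary western blot, normalised to β-actin and expressed relative to solvent control. DC50 came from four-parameter nonlinear regression; degradation rate = 100 − AR%.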

For data set [1], the system named is Human CD34+ Hematopoietic stem cells. Nature of the data set: Human CD34+ hematopoietic stem cell proliferation inhibition experiment. Particulars: 168 h, inhibitory activity against the proliferation of CD34+ hematopoietic stem cells, 7 days. As to the method: Human CD34+ Hematopoietic stem cells (TPCS, Cat.hmPB34-P-2CW) are CD34-positive stem cells obtained from human PBMCs through immunomagnetic bead sorting. The culture conditions are as follows: DPBS (Gibco, Cat.14190-144) +StemSpan SFEM II ([…], Cat.9655) +1X StemSpan CD34+ Expansion Supplement ([…], Cat.2691). First, 40 nL of DMSO, the positive reference compound Talazoparib, or the test compounds were respectively added to a 384-well plate (Corning, Cat. 3764). Then, a cell suspension was added at 400 cells per well in 40 µL of medium, resulting in final concentrations of 0.1% DMSO, 3 µM Talazoparib, or various concentrations of the compounds in each well. The plate was centrifuged at room temperature at 1000 rpm for 1 minute, followed by incubation for 7 days in a 37°C, 5% CO2 incubator. Following incubation, 20 µL of CellTiter-Glo Reagent (Promega, Cat. G7573) was directly added to each well, and the plate was centrifuged at room temperature at 1000 rpm for 1 minute, followed by incubation for 20 minutes in the dark. Following incubation, the chemiluminescent signal (CFU) was read and recorded using an Envision multimode microplate reader (PerkinElmer, Cat. 2104). The cell proliferation inhibition rate at various compound concentrations was calculated according to Equation (3), where CFUhigh control represents the average signal value of the DMSO group, CFUlow control represents the average signal value of the Talazoparib group, and CFUcompound represents the average signal value of the compound-treated group. The processed data obtained from Equation (3) were analysed using XLfit or GraphPad Prism software, and a four-parameter curve fitting model was applied to calculate the compound concentration corresponding to a 50% inhibition rate, i.e., the IC50 value. Inhibition% = (CFUhigh control−CFUcompound)/(CFUhigh control−CFUlow control) × 100% [formula]

Another data set relates to VCaP cells. Nature of the data set: VCaP cell proliferation inhibition experiment (CellTiter-Glo). Particulars: Homo sapiens, 168 h. Background: Cellular ATP, detected with luciferase, serves as a proxy for viable cell number.
The next data set concerns the target T2, hERG potassium channel (Homo sapiens, UniProt Q12809).
T2 construct: expressed in transfected cells; host or cells: CHO cells stably expressing hERG
Description: hERG potassium ion channel test (manual patch-clamp, CHO cells). The note with it: chinese hamster; inhibitory activity against hERG potassium channel current, CHO cells, whole cell patch-clamp; read-out: IC50. The source says:
Experimental platform: Electrophysiological manual patch-clamp system
Cell line: Chinese hamster ovary (CHO) cell lines stably expressing hERG potassium ion channel
Experimental method: In Chinese Hamster Ovary (CHO) cells stably expressing hERG potassium channel, whole cell patch-clamp technique was used to record hERG potassium channel current at room temperature. The glass microelectrode was made of a glass electrode blank (BF150-86-10, Sutter) by a puller. The tip resistance after filling the liquid in the electrode was about 2-5 MΩ. The glass microelectrode can be connected to the patch-clamp amplifier by inserting the glass microelectrode into an amplifier probe. The clamping voltage and data recording were controlled and recorded by the pClamp 10 software through a computer. The sampling frequency was 10 kHz, and the filtering frequency was 2 kHz. After the whole cell records were obtained, the cells were clamped at -80 mV, and the step voltage that induced the hERG potassium current (I hERG) was depolarised from -80 mV to +20 mV for 2 s, then repolarised to -50 mV, and returned to -80 mV after 1 s. This voltage stimulation was given every 10 s, and the administration process was started after the hERG potassium current was confirmed to be stable (at least 1 minute). The compound was administered for at least 1 minute at each test concentration, and at least 2 cells (n ≥ 2) were tested at each concentration.
Data processing: Data analysis processing was carried out by using pClamp 10, GraphPad Prism 5 and Excel software.
Compound IC50 was calculated using GraphPad Prism 5 software by fitting according to the following equation: Y = Bottom + (Top−Bottom)/(1+10^(∧)((LogIC50−X)*HillSlope)) [formula] where X represents the Log value of the tested concentration of the test sample, Y represents the inhibition percentage at the corresponding concentration, and Bottom and Top represent the minimum and maximum inhibition percentage, respectively.
For orientation: Block of hERG is tested as a sign of cardiac risk.

By DC50 is commonly meant the midpoint of the concentration-degradation curve. One may read the IC50 as the concentration that gives 50% inhibition. By GI50 is commonly meant the concentration giving 50% growth inhibition. Low readings indicate greater sensitivity of the cells, high ones lower sensitivity of the cells.

T2 sequence (Q12809 whole entry): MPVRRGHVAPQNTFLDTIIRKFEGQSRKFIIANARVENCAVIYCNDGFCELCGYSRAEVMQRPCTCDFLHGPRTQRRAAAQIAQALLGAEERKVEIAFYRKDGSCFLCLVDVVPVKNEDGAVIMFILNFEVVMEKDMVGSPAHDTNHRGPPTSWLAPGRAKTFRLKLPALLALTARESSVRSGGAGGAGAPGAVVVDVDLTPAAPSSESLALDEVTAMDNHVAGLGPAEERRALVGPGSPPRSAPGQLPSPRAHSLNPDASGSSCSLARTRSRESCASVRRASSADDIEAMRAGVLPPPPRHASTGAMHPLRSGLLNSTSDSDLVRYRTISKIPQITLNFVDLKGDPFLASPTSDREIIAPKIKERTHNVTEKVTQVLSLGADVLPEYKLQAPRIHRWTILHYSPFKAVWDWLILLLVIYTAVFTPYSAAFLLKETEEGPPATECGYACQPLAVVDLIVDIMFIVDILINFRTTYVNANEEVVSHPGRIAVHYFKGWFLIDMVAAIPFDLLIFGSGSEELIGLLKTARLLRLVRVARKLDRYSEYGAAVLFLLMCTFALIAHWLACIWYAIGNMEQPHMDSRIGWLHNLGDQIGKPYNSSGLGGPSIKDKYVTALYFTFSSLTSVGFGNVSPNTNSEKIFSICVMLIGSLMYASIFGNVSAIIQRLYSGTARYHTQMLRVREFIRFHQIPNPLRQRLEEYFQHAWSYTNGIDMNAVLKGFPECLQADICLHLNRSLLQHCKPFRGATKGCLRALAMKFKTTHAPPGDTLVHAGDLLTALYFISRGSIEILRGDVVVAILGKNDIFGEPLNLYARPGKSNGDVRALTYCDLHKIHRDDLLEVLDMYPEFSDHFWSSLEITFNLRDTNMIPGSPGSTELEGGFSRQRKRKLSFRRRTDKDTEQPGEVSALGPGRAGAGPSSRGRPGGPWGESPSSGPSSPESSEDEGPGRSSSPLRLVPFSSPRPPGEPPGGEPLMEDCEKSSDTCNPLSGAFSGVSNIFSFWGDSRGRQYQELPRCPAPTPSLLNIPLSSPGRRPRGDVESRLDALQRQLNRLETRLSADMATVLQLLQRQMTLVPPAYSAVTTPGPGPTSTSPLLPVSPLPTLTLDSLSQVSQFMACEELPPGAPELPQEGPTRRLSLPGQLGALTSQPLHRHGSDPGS

Regarding `COc1cc(O[C@H]2C(C)(C)[C@H](NC(=O)c3ccc(N4CCC(CN5CCN6c7cc(F)c(C(=O)N[C@H]8CCC(=O)NC8=O)cc7CC[C@@H]6C5)CC4)cc3)C2(C)C)ccc1C#N` [Compound 11], on AR protein, the DC50 is less than 0.1 µM. Further, the IC50 is more than 10 µM in data set [1] and more than 40 µM on hERG potassium channel. In the data set with VCaP cells, the concentration for 50% growth inhibition (GI50) was less than 0.3 µM.
On to `COc1cc(O[C@H]2C(C)(C)[C@H](NC(=O)c3ccc(N4CCC5(CC4)CC(CN4CCN6c7cc(F)c(C(=O)N[C@H]8CCC(=O)NC8=O)cc7CC[C@H]6C4)C5)cc3)C2(C)C)ccc1C#N` [Trifluoroacetate of compound 7], for which, on AR protein, the 50% degradation concentration (DC50) was less than 0.1 µM. This compound also displayed a 50% inhibitory concentration (IC50) in data set [1] of more than 10 µM.

(Values after patent publication EP4763845A1, “CYANO AROMATIC RING DERIVATIVE AND PHARMACEUTICAL USE THEREOF” (Haisco Pharmaceutical Group Co., Ltd., priority 2023, dated 2025).)
